The source of these data is ChEMBL document CHEMBL1833945, “Synthesis and anticonvulsant activity of new N-Mannich bases derived from 5-cyclopropyl-5-phenyl- and 5-cyclopropyl-5-(4-chlorophenyl)-imidazolidine-2,4-diones” (Bioorg Med Chem, 2011).

In data set [1] the test system is Mus musculus. Briefly: Neurotoxicity in CF1 albino mouse assessed as minimum dose causing loss of righting reflex at 300 mg/kg, ip after 4 hrs by rotarod test. The following applies: in vivo. The class given is toxicity, organism-based. Set-up: dose 300 mg/kg, route intraperitoneal. In general terms: The rotarod test checks motor coordination on a turning rod.
Data set [2] deals with Mus musculus. Briefly: Anticonvulsant activity in ip dosed CF1 albino mouse assessed as protection against subcutaneous pentylenetetrazole-induced seizures after 4 hrs. The following applies: read-out: MED. The class given is functional.
The subject of data set [3] is Mus musculus. Briefly: Anticonvulsant activity in ip dosed CF1 albino mouse assessed as protection against maximal electroshock-induced seizures after 0.5 hrs. The note with it: read-out: MED. The class given is functional. (In general: Protection in the maximal electroshock model is a classic sign of anticonvulsant action.)
Data set [4] has as its system Mus musculus. In words: Anticonvulsant activity in ip dosed CF1 albino mouse assessed as protection against subcutaneous pentylenetetrazole-induced seizures after 0.5 hrs. The note with it: read-out: MED. The class given is functional.
Data set [5] has as its system Mus musculus. Briefly: Anticonvulsant activity in ip dosed CF1 albino mouse assessed as protection against maximal electroshock-induced seizures after 4 hrs. The class given is functional. The following applies: read-out: MED.
Data set [6] deals with Mus musculus. Briefly: Neurotoxicity in CF1 albino mouse assessed as loss of rotard grasping at 300 mg/kg, ip after 0.5 hrs by rotarod test. The class given is toxicity, organism-based. Set-up: dose 300 mg/kg, route intraperitoneal. The following applies: in vivo.
The nature of data set [7]: Lipophilicity, log P of compound. The class given is physicochemical. The note with it: octanol/water.
In data set [8] the test system is Mus musculus. In words: Anticonvulsant activity in CF1 albino mouse assessed as protection against subcutaneous pentylenetetrazole-induced seizures at 300 mg/kg, […] after 4 hrs. The class given is functional, organism-based. On the set-up: dose 300 mg/kg.
The subject of data set [9] is Mus musculus. Briefly: Anticonvulsant activity in CF1 albino mouse assessed as protection against maximal electroshock-induced seizures at 300 mg/kg, ip after 0.5 hrs. Set-up: dose 300 mg/kg. The class given is functional, organism-based.
For data set [10], the system named is Mus musculus. In words: Neurotoxicity in CF1 albino mouse assessed as loss of rotard grasping at 300 mg/kg, ip after 4 hrs by rotarod test. The class given is toxicity, organism-based. Set-up: dose 300 mg/kg, route intraperitoneal. The following applies: in vivo.
The subject of data set [11] is Mus musculus. Briefly: Neurotoxicity in CF1 albino mouse assessed as impair in motor coordination at 300 mg/kg, ip after 0.5 hrs by rotarod test. The class given is toxicity, organism-based. Set-up: dose 300 mg/kg, route intraperitoneal. The following applies: in vivo.
For data set [12], the system named is Rattus norvegicus. In words: Anticonvulsant activity in po dosed Sprague-Dawley albino rat assessed as time to peak effect. The class given is functional.
Data set [13] deals with Mus musculus. Briefly: Neurotoxicity in ip dosed CF1 albino mouse assessed as minimum dose required to cause impair in motor coordination after 4 hrs by rotarod test. The class given is toxicity, organism-based. The note with it: in vivo.
Data set [14] relates to Mus musculus. In words: Anticonvulsant activity in CF1 albino mouse assessed as protection against electrically-induced seizure at 100 mg/kg, ip after 0.5 hrs by 6Hz psychomotor seizure test. Set-up: dose 100 mg/kg. The class given is functional, organism-based.
Data set [15] has as its system Rattus norvegicus. Briefly: Neurotoxicity in Sprague-Dawley albino rat assessed as motor impairment at 50 mg/kg, po after 0.5 hrs by rotarod test. The class given is toxicity, organism-based. Set-up: dose 50 mg/kg, route oral. The following applies: in vivo.
For data set [16], the system named is Mus musculus. Briefly: Anticonvulsant activity in CF1 albino mouse assessed as protection against electrically-induced seizure at 100 mg/kg, ip after 0.25 hrs by 6Hz psychomotor seizure test. The class given is functional, organism-based. Set-up: dose 100 mg/kg.
Data set [17] has as its system Rattus norvegicus. Briefly: Neurotoxicity in Sprague-Dawley albino rat assessed as motor impairment at 50 mg/kg, po after 0.25 hrs by rotarod test. The following applies: in vivo. The class given is toxicity, organism-based. Set-up: dose 50 mg/kg, route oral.
Data set [18] relates to Rattus norvegicus. Briefly: Anticonvulsant activity in po dosed Sprague-Dawley albino rat assessed as protection against subcutaneous pentylenetetrazole-induced seizures. The class given is functional.
The subject of data set [19] is Rattus norvegicus. Briefly: Anticonvulsant activity in Sprague-Dawley albino rat assessed as protection against subcutaneous pentylenetetrazole-induced seizures at 50 mg/kg, po after 0.25 hrs. The class given is functional, organism-based. Set-up: dose 50 mg/kg.
The nature of data set [20]: Neurotoxicity in oral dosed Sprague-Dawley albino rat assessed as motor impairment by rotarod test. The class given is toxicity, organism-based. The note with it: in vivo.
Data set [21] relates to Rattus norvegicus. In words: Neurotoxicity in Sprague-Dawley albino rat assessed as motor impairment at 50 mg/kg, po after 2 hrs by rotarod test. The class given is toxicity, organism-based. Set-up: dose 50 mg/kg, route oral. The note with it: in vivo.
Data set [22] has as its system Rattus norvegicus. In words: Neurotoxicity in Sprague-Dawley albino rat assessed as motor impairment at 50 mg/kg, po after 4 hrs by rotarod test. The class given is toxicity, organism-based. On the set-up: dose 50 mg/kg, route oral. The following applies: in vivo.
Data set [23] concerns Rattus norvegicus. In words: Neurotoxicity in Sprague-Dawley albino rat assessed as motor impairment at 50 mg/kg, po after 1 hrs by rotarod test. The class given is toxicity, organism-based. On the set-up: dose 50 mg/kg, route oral. The note with it: in vivo.
Data set [24] deals with Mus musculus. Briefly: Neurotoxicity in CF1 albino mouse assessed as impair in motor coordination at 300 mg/kg, ip after 4 hrs by rotarod test. The class given is toxicity, organism-based. On the set-up: dose 300 mg/kg, route intraperitoneal. The following applies: in vivo.
Data set [25] relates to Rattus norvegicus. In words: Neurotoxicity in Sprague-Dawley albino rat assessed as motor impairment at 30 mg/kg, po after 4 hrs by rotarod test. The class given is toxicity, organism-based. On the set-up: dose 30 mg/kg, route oral. The note with it: in vivo.
The species entered for data set [26] is Rattus norvegicus. In words: Protective index, ratio of TD50 for neurotoxicity in Sprague-Dawley albino rat to ED50 for inhibition of maximal electroshock-induced seizures in Sprague-Dawley albino rat. The class given is functional.
Data set [27] deals with Rattus norvegicus. Briefly: Neurotoxicity in Sprague-Dawley albino rat assessed as motor impairment at 30 mg/kg, po after 0.5 hrs by rotarod test. Set-up: dose 30 mg/kg, route oral. The following applies: in vivo. The class given is toxicity, organism-based.
Data set [28] relates to Rattus norvegicus. Briefly: Anticonvulsant activity in Sprague-Dawley albino rat assessed as protection against maximal electroshock-induced seizures at 30 mg/kg, po after 0.5 hrs. The class given is functional, organism-based. Set-up: dose 30 mg/kg.
Data set [29] relates to Rattus norvegicus. In words: Neurotoxicity in Sprague-Dawley albino rat assessed as motor impairment at 30 mg/kg, po after 2 hrs by rotarod test. The note with it: in vivo. Set-up: dose 30 mg/kg, route oral. The class given is toxicity, organism-based.
Data set [30] has as its system Rattus norvegicus. In words: Anticonvulsant activity in Sprague-Dawley albino rat assessed as protection against maximal electroshock-induced seizures at 30 mg/kg, po after 0.25 hrs. The class given is functional, organism-based. Set-up: dose 30 mg/kg.
For data set [31], the system named is Rattus norvegicus. In words: Neurotoxicity in Sprague-Dawley albino rat assessed as motor impairment at 30 mg/kg, po after 0.25 hrs by rotarod test. The class given is toxicity, organism-based. On the set-up: dose 30 mg/kg, route oral. The note with it: in vivo.
Data set [32] deals with Rattus norvegicus. Briefly: Anticonvulsant activity in Sprague-Dawley albino rat assessed as protection against maximal electroshock-induced seizures at 30 mg/kg, po after 4 hrs. The class given is functional, organism-based. Set-up: dose 30 mg/kg.
Data set [33] has as its system Mus musculus. In words: Toxicity in subcutaneous pentylenetetrazole-induced CF1 albino mouse assessed as myoclonic jerks at 300 mg/kg, ip after 4 hrs. The class given is organism-based. On the set-up: dose 300 mg/kg. The note with it: in vivo, sc.
In data set [34] the test system is Rattus norvegicus. In words: Neurotoxicity in Sprague-Dawley albino rat assessed as motor impairment at 30 mg/kg, po after 1 hrs by rotarod test. The note with it: in vivo. The class given is toxicity, organism-based. Set-up: dose 30 mg/kg, route oral.
Data set [35] concerns Rattus norvegicus. In words: Anticonvulsant activity in po dosed Sprague-Dawley albino rat assessed as protection against maximal electroshock-induced seizures. The class given is functional.

Calls of active or inactive are those of the source. The calls are words filed in the database; no cut-off is given here.

On to `O=C1NC(c2ccccc2)(C2CC2)C(=O)N1CN1CCN(C/C=C/c2ccccc2)CC1` (stereo not drawn), for which the Activity result in the data set on Mus musculus [1] and with Mus musculus [6] was “Toxic” throughout. Besides, the minimal effective dose in the data set with Mus musculus [2] was 300 mg/kg; in the data set on Mus musculus [3], 100 mg/kg; in the data set on Mus musculus [4], 100 mg/kg; with Mus musculus [5], 100 mg/kg. In addition, in data set [7], the logP (as a rule, a log measure of how a compound divides between an organic and an aqueous phase) was 3.3.
Regarding `O=C1NC(c2ccc(Cl)cc2)(C2CC2)C(=O)N1CN1CCN(c2ccccc2)CC1` (stereo not drawn), the result with Mus musculus [8] and in the data set on Mus musculus [9] was inactive. In the data set with Mus musculus [5], the minimal effective dose was determined as 100 mg/kg. For the same molecule, the Activity result with Mus musculus [10] was “Toxic”; in the data set on Mus musculus [11], “Non-toxic”.
Regarding `O=C1NC(=O)C(c2ccc(Cl)cc2)(C2CC2)N1` (stereo not drawn), the minimal effective dose was determined as 30 mg/kg in the data set with Mus musculus [2], 300 mg/kg in the data set on Mus musculus [4] and 300 mg/kg in the data set with Mus musculus [5]. Also, the outcome in the data set with Mus musculus [9], with Mus musculus [14], with Mus musculus [16] and with Rattus norvegicus [19] was inactive. The Time in the data set with Rattus norvegicus [12] turned out to be 2 h. In addition, the MTC in the data set with Mus musculus [13] was 300 mg/kg. Further, the Activity entry in the data set on Rattus norvegicus [15], in the data set on Rattus norvegicus [17], with Rattus norvegicus [21], in the data set with Rattus norvegicus [22], with Rattus norvegicus [23] and in the data set on Mus musculus [11] was “Non-toxic” throughout. The ED50 (commonly the midpoint of the dose-response relation) in the data set with Rattus norvegicus [18] came to 85 mg/kg. In addition, the TD50 (commonly the 50% point of the dose-response relation for the toxic effect studied) in data set [20] was greater than 135 mg/kg. Moreover, in data set [7], the lipophilicity (logP) turned out to be 2.63.
With `O=C1NC(c2ccc(Cl)cc2)(C2CC2)C(=O)N1CN1CCc2ccccc2C1` (stereo not drawn), the Activity entry in the data set on Mus musculus [24] and in the data set on Mus musculus [11] was “Non-toxic” throughout. The result in the data set with Mus musculus [8] and with Mus musculus [9] was inactive. Moreover, the minimal effective dose in the data set on Mus musculus [5] was 300 mg/kg. This molecule came in with a logP in data set [7] of 3.71.
Turning to `O=C1NC(c2ccc(Cl)cc2)(C2CC2)C(=O)N1CN1CCN(c2ccccc2F)CC1` (stereo not drawn), the Activity entry in the data set with Mus musculus [24] and with Mus musculus [11] was “Non-toxic” each time. Besides, the result in the data set with Mus musculus [8] and in the data set on Mus musculus [9] was inactive. In addition, the minimal effective dose in the data set on Mus musculus [5] turned out to be 300 mg/kg.
As to `O=C1NC(c2ccccc2)(C2CC2)C(=O)N1CN1CCN(CCc2ccccc2)CC1` (stereo not drawn), the Activity result is “Non-toxic” with Rattus norvegicus [25]; “Non-toxic” in the data set with Rattus norvegicus [27]; “Non-toxic” in the data set on Rattus norvegicus [29]; “Non-toxic” in the data set on Rattus norvegicus [31]; “Toxic” with Mus musculus [33]; “Non-toxic” in the data set with Rattus norvegicus [34]. Also, the Activity result in the data set with Mus musculus [11] is “Non-toxic”. In addition, the PI in the data set filed under Rattus norvegicus [26] was greater than 5.86. Besides, the outcome with Mus musculus [9], with Rattus norvegicus [28] and in the data set on Rattus norvegicus [30] was inactive. Also, the Time in the data set on Rattus norvegicus [12] is 4 h. Besides, the minimal effective dose in the data set on Mus musculus [5] turned out to be 30 mg/kg. Also, the MTC in the data set on Mus musculus [13] is 300 mg/kg. Besides, the result in the data set with Rattus norvegicus [32] was Active. Also, the TD50 in data set [20] was greater than 100 mg/kg. For the same molecule, the ED50 with Rattus norvegicus [35] was found to be 17.1 mg/kg. The molecule further displayed a logP in [7] of 2.98.
Take `O=C1NC(c2ccc(Cl)cc2)(C2CC2)C(=O)N1CN1CCOCC1` (stereo not drawn): the Activity result was “Toxic” with Mus musculus [1]; “Non-toxic” in the data set with Rattus norvegicus [15]; “Non-toxic” with Rattus norvegicus [17]; “Non-toxic” in the data set on Rattus norvegicus [21]; “Non-toxic” in the data set with Rattus norvegicus [22]; “Non-toxic” in the data set with Rattus norvegicus [23]. In addition, the Activity entry with Mus musculus [6] is “Toxic”. Also, the minimal effective dose is 300 mg/kg in the data set on Mus musculus [2], 100 mg/kg with Mus musculus [3], 100 mg/kg with Mus musculus [4] and 100 mg/kg in the data set with Mus musculus [5]. Further, the outcome with Mus musculus [16] and in the data set with Rattus norvegicus [19] was inactive. In [7], the logP amounted to 2.
